Earlier results as cited in US12109217B2, “Bioactive agents included in functionalized starch having a single helix V-structure” (B-ORGANIC FILMS CORP., priority 2014, dated 2024).
Read-outs that look alike come from different tables or passages of the source.

Legend:
[1] = in vivo

For `C[C@@H]1CC[C@H]2[C@@H](C)C(=O)O[C@@H]3O[C@@]4(C)CC[C@@H]1[C@]32OO4` [Artemisinin], the oral bioavailability [1] is given as “about 30%”.
For `COC(=O)[C@H](c1ccccc1Cl)N1CCc2sccc2C1` [Clopidogrel bisulfate], the solubility in water (neutral pH) is listed as “insoluble in water” and the solubility (pH 1-2 (similar to gastric pH)) is listed as “freely soluble”.
In the case of `CC(=O)O[C@H]1C(=O)[C@@]2(C)[C@H]([C@H](OC(=O)c3ccccc3)[C@]3(O)C[C@H](OC(=O)[C@H](O)[C@@H](NC(=O)c4ccccc4)c4ccccc4)C(C)=C1C3(C)C)[C@]1(OC(C)=O)CO[C@@H]1C[C@@H]2O` [Paclitaxel], the solubility (water / aqueous medium (and oil where stated)) is given as “poorly soluble in aqueous medium”.
